For 16 compounds, GI50 and TGI results are on record in PubChem BioAssay (NCI).

What all share (experiment): NCI-60 cell line screen, 48 h
Test [1] concerns SW-620 colon.
Test [2] concerns MCF7 breast.
The subject of test [3] is M14 melanoma.
For test [4], the system named is KM12 colon.
In test [5] the test system is SF-268 CNS.
In test [6] the test system is A498 renal.
Test [7] relates to MDA-MB-435.
Test [8] relates to DU-145 prostate.
The test system of test [9] is A549 NSCLC.
The test system of test [10] is K-562 leukemia.

Molecules are shown by their SMILES.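 Assay format: 96-well plates, 48-hour exposure. At the GI50, growth is halved. At the TGI there is no net growth.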

Consider `COc1ccc(C/C(C)=C(\c2ccc(OCCN3CCOCC3)cc2)c2ccc(OC(=O)Cc3ccccc3)cc2)cc1`, for which the GI50 in test [1] was 0.742 µM; in test [2], 0.574 µM; in test [3], 0.59 µM; in test [4], 1.14 µM; in test [5], 0.96 µM; in test [6], 0.462 µM. Further, the GI50 is 0.632 µM in test [7], 1.33 µM in [8], 1.02 µM in [9] and 0.456 µM in test [10]. In addition, the TGI in test [1] turned out to be 1.8 µM; in test [2], 1.54 µM; in test [3] it was 1.19 µM; in [4], 3.37 µM; in test [5], 12.8 µM; in [6] it was 0.971 µM. Moreover, the TGI stood at 1.34 µM in test [7], 20.4 µM in test [8], 11.2 µM in test [9] and 1.66 µM in test [10].
Take `CCN(CCNc1ccc(C)c2sc3cc(Cl)ccc3c(=O)c12)CC(C)O` (stereo not drawn): the GI50 in test [1] is 1.8 µM; in [2] it was 1.5 µM; in [3], 1.75 µM; in test [4], 1.84 µM; in [5] it was 3.29 µM; in [6] it was 1.49 µM. Besides, the GI50 is 1.64 µM in [7], 3.87 µM in test [8], 1.85 µM in test [9] and 1.82 µM in [10]. In addition, the TGI came out at 3.51 µM in test [1]; 3.01 µM in test [2]; 3.14 µM in [3]; 3.88 µM in test [4]; 16 µM in test [5]; 2.87 µM in test [6]. Moreover, the TGI in [7] was 3.27 µM; in test [8], 18.2 µM; in test [9] it was 3.45 µM; in test [10], 3.41 µM.
Consider `Cn1ccnc1C(=O)/C=C/c1ccc(CC(=O)Nc2ccc(S(F)(F)(F)(F)F)cc2)cc1`, for which the GI50 in [1] is 1.03 µM; in test [2] it was 0.625 µM; in test [3], 3.16 µM; in test [4] it was 2.04 µM; in test [5] it was 1.88 µM; in test [6], 3.12 µM. In addition, the GI50 in test [7] is 4.04 µM; in [8] it was 2.25 µM; in test [9], 3.32 µM; in test [10], 0.549 µM. Further, the TGI in test [1] came out at 4.09 µM; in [2], 5.54 µM; in [3], 6.55 µM; in test [4], 4.7 µM; in [5], 4.86 µM; in [6], 6.14 µM. The TGI in test [7] came out at 12.5 µM; in test [8], 4.53 µM; in test [9] it was 9.15 µM; in test [10], 16.7 µM.
For the compound `COC(=O)c1cc(-c2cc(OC)c(OC)c(OC)c2)[nH]c1N/N=C/c1c(Cl)cccc1Cl`, the GI50 was 1.51 µM in [1]; 1.77 µM in test [2]; 8.6 µM in test [3]; 0.801 µM in test [4]; 1.35 µM in test [5]; 0.683 µM in [6]. The GI50 is 0.247 µM in test [7], 1.85 µM in test [8] and 4.97 µM in test [9]. Besides, the TGI is more than 33.8 µM in [1]; 53 µM in [2]; 40.1 µM in test [3]; 6.94 µM in test [4]; 11.2 µM in [5]; 2.46 µM in [6]. The TGI in [7] was 8.61 µM; in [8], 16.3 µM; in test [9], 23.3 µM; in [10], more than 100 µM.
`O=C(/C=C/c1cccs1)c1ccc(Nc2nc(Nc3ccc(F)cc3)nc(Nc3ccc(F)cc3)n2)cc1`: the GI50 was 28.3 µM in test [1]; 14 µM in test [2]; 29.7 µM in test [3]; 16.3 µM in [4]; 30.2 µM in test [5]; 9.24 µM in test [6]. The GI50 in [7] is 24.5 µM; in [8], 52.7 µM; in test [9] it was 3.87 µM; in test [10] it was 29.9 µM. The TGI in test [1] is 96.4 µM; in test [2], 46.2 µM; in test [3], more than 100 µM; in test [4], 45.2 µM; in test [5], more than 100 µM; in [6], more than 100 µM. The TGI was 67.6 µM in test [7], more than 100 µM in [8], 22.5 µM in [9] and more than 100 µM in [10].
With `C=CC1=C[C@@H]2[C@@H]3O[C@]4(CC[C@H](O4)[C@@H](C)C[C@@H](O)C3=O)C[C@H](O)C3=NCC[C@@]32CC1`, the GI50 in test [1], in test [2], in [3], in test [4], in [5] and in [6] was less than 0.00333 µM each time. In addition, the GI50 in [7], in test [8], in test [9] and in test [10] was less than 0.00333 µM in each case. Further, the TGI in [1] is 0.00523 µM; in [2], less than 0.00333 µM; in test [3], less than 0.00333 µM; in test [4] it was 0.0061 µM; in test [5], 0.00575 µM; in test [6], less than 0.00333 µM. For the same compound, the TGI in test [7] is 0.00334 µM; in test [8] it was 0.00335 µM; in test [9] it was 0.00459 µM; in test [10], more than 33.3 µM.
Turning to `COC1(O)C(=O)c2ccccc2OC1(OC)c1ccccc1` (stereo not drawn), the TGI in test [1], in test [2], in test [3], in test [5], in test [6] and in [7] was more than 100 µM each time. Further, the TGI in test [8], in test [9] and in test [10] was more than 100 µM each time.
As to `Cc1nc2cnc3cc(F)c(-c4ccc(Oc5ncccn5)cc4Cl)cc3c2n1[C@H]1CCN(C(=O)CO)C[C@@H]1F`, the GI50 is 0.422 µM in test [1]; 6.51 µM in [2]; 0.0155 µM in test [3]; 0.0405 µM in [4]; 6.12 µM in [5]; 4.58 µM in test [6]. In addition, the GI50 in test [7] is 0.0692 µM; in test [8], 4.36 µM; in test [9], 1.97 µM; in test [10], 4.6 µM. The TGI in test [1] was 54.6 µM; in test [2], more than 58.2 µM; in [3] it was 0.882 µM; in [4], more than 100 µM; in test [5], more than 100 µM; in [6], more than 84.9 µM. In addition, the TGI in [7] was more than 60.7 µM; in [8], more than 100 µM; in [9], more than 100 µM; in [10] it was more than 100 µM.
For the compound `C[C@]12CC[C@@H]3c4ccc(O)cc4CC[C@H]3[C@@H]1CC[C@@H]2NS(=O)(=O)c1cccc(C(F)(F)F)c1`, the GI50 in test [1] was 3.72 µM; in [2], 2.72 µM; in test [3], 3.88 µM; in test [4], 3.4 µM; in [5], 4.52 µM; in test [6] it was 2.7 µM. Also, the GI50 in test [7] is 2.8 µM; in test [8] it was 5.83 µM; in test [9] it was 3.23 µM; in [10], 3.63 µM. The TGI in test [1] was 15.6 µM; in [2], 8.49 µM; in test [3], 13.9 µM; in test [4], 11.8 µM; in [5], 18.5 µM; in [6], 8.75 µM. Moreover, the TGI came to 8.62 µM in test [7], 18.4 µM in test [8], 12.8 µM in test [9] and 15.3 µM in test [10].
For the compound `NC(=O)c1cc([N+](=O)[O-])c(Cl)c([N+](=O)[O-])c1`, the GI50 is 1.9 µM in [1]; 1.97 µM in test [2]; 1.91 µM in test [3]; 4.69 µM in test [4]; 4.66 µM in test [5]; 13.8 µM in test [6]. Moreover, the GI50 was 5.99 µM in test [7], 2.15 µM in test [8] and 16.9 µM in [9]. Besides, the TGI in test [1] worked out at 3.99 µM; in [2] it was 4.06 µM; in test [3], 4.72 µM; in [4], 16.3 µM; in [5] it was 16.2 µM; in test [6], 26.8 µM. In addition, the values for the TGI in test [7], in test [8] and in test [9] were 19.2 µM, 3.92 µM and 32.2 µM, respectively.
With `NC(=NC1CCCCCCC1)c1ccc(N2CCN(c3ccc(C(N)=NC4CCCCCCC4)cc3)CC2)cc1`, the GI50 in test [1] is 8.91 µM; in test [2] it was 5.77 µM; in [3] it was 30.8 µM; in test [4], 5.3 µM; in [5], 16.7 µM; in test [7], 5.25 µM. Also, the GI50 in test [8] was 1.94 µM; in test [9], 4.25 µM; in test [10], 35.4 µM. Moreover, the TGI in test [1] is 38.5 µM; in [2], more than 100 µM; in test [3], more than 100 µM; in test [4], 19.1 µM; in test [5], 42.7 µM; in test [7], 17.9 µM. Further, the TGI in test [8] was 12.6 µM; in test [9], more than 100 µM; in [10], more than 100 µM.
As to `NC(=O)c1oc([N+](=O)[O-])c(-c2ccccc2)c1-c1ccccc1`, the TGI in test [1] was more than 100 µM; in test [2], more than 100 µM; in [3], 32.5 µM; in [4], 40.9 µM; in test [5] it was more than 100 µM; in [7], 28.7 µM. The TGI in test [8] is 93.4 µM; in test [9] it was 44.5 µM; in [10], 59.6 µM.
In the case of `COc1ccc(-c2cc(-c3ccccc3)nc(N3CCN(CCNc4ccnc5cc(Cl)ccc45)CC3)n2)cc1`, the GI50 in test [1] is 1.73 µM; in test [2] it was 1.71 µM; in test [4], 1.94 µM; in test [5], 1.75 µM; in [6] it was 8.15 µM; in test [7], 1.8 µM. In addition, the GI50 in test [8] is 1.88 µM; in [9] it was 1.9 µM. The TGI worked out at 3.47 µM in [1]; 3.45 µM in test [2]; 4.04 µM in test [4]; 3.81 µM in [5]; 20.7 µM in test [6]; 3.31 µM in test [7]. Moreover, the TGI in test [8] amounted to 3.94 µM; in test [9] it was 4.39 µM.
For `N#Cc1c(N)nc(N2CCOCC2)c(C#N)c1-c1ccc(Cl)cc1`, the GI50 in test [1] is more than 100 µM; in [2], 23.2 µM; in test [3] it was 44.6 µM; in test [5], 61.7 µM; in test [6], 8.11 µM; in [7], 65.3 µM. Also, the values for the GI50 in [8], in test [9] and in [10] were 75 µM, 42.6 µM and more than 100 µM, respectively. In addition, the TGI in test [1] is more than 100 µM; in test [2] it was more than 100 µM; in test [3] it was more than 100 µM; in test [5] it was more than 100 µM; in test [6], 36.3 µM; in test [7], more than 100 µM. Besides, the TGI in test [8], in [9] and in [10] was more than 100 µM in each case.
On to `CCCCCCC#Cc1ccccc1C#CCO`, for which the GI50 was 20.1 µM in test [1]; 32.8 µM in [2]; 28.4 µM in test [3]; 18.6 µM in test [4]; 30.6 µM in [5]; 18.4 µM in test [7]. For the same compound, the GI50 in test [8] was 17.7 µM; in test [9], 20.7 µM; in [10], 28.8 µM. Moreover, the TGI in test [1] was 38 µM; in test [2], more than 100 µM; in test [3], 74.9 µM; in test [4] it was 37.6 µM; in test [5], 65.2 µM; in test [7], 37.2 µM. For the same compound, the TGI was 36.3 µM in [8], 49 µM in test [9] and more than 100 µM in test [10].
For `CC(C)C[C@H](NC(=O)[C@H]1O[C@@H]1C(=O)O)C(=O)NCCc1ccc(O)cc1`, the GI50 in test [1], in [2], in test [3], in test [4], in [5] and in test [7] was more than 100 µM each time. The GI50 in test [8], in test [9] and in [10] was more than 100 µM each time. Moreover, the TGI in test [1], in [2], in [3], in test [4], in [5] and in test [7] was more than 100 µM in each case. Moreover, the TGI in test [8], in test [9] and in [10] was more than 100 µM in each case.
